The source of these data is US10206394B2, “Herbicidal compounds” (Syngenta Participations AG, priority 2014, dated 2019).

Like-named read-outs stand apart in the source and are kept apart here.

Assay in all cases: Glasshouse assay for herbicidal activity (pre- and post-emergence), percentage phytotoxicity
Holding throughout (type): in vivo

One experiment has as its system Lolium perenne (LOLPE). Particulars: Lolium perenne. In a few lines:
(§1)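 Herbicide was applied to potted plants sown in standard soil, one day after sowing for PRE and after about 12 days for POST. Visual percentage damage ratings followed at 15 DAA (POST) and 20 DAA (PRE).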

Experiment [1] relates to Alopecurus myosuroides (ALOMY). Particulars: Alopecurus myosuroides. In a few lines: as §1
The next experiment concerns Avena fatua (AVEFA). Particulars: Avena fatua. The essentials: as §1
Experiment [2] has as its system Echinochloa crus-galli (ECHCG). Particulars: Echinochloa crus-galli. In a few lines: as §1
The mark [3] stands for this setting: post-emergence, 360 h, 250 g/ha, post-emergence, 15 DAA, visual assessment (100%=total damage, 0%=no damage), read-out: Post-emergence herbicidal activity (percentage phytotoxicity) LOLPE POST.
[4] abbreviates: pre-emergence, 480 h, 250 g/ha, pre-emergence, 20 DAA, visual assessment (100%=total damage, 0%=no damage), read-out: Pre-emergence herbicidal activity (percentage phytotoxicity) LOLPE PRE.
Setting [5] is: post-emergence, 360 h, 250 g/ha, post-emergence, 15 DAA, visual assessment (100%=total damage, 0%=no damage), read-out: Post-emergence herbicidal activity (percentage phytotoxicity) ALOMY POST.
The mark [6] stands for this setting: pre-emergence, 480 h, 250 g/ha, pre-emergence, 20 DAA, visual assessment (100%=total damage, 0%=no damage), read-out: Pre-emergence herbicidal activity (percentage phytotoxicity) ALOMY PRE.
[7] abbreviates: post-emergence, 360 h, 250 g/ha, post-emergence, 15 DAA, visual assessment (100%=total damage, 0%=no damage), read-out: Post-emergence herbicidal activity (percentage phytotoxicity) AVEFA POST.
[8] abbreviates: pre-emergence, 480 h, 250 g/ha, pre-emergence, 20 DAA, visual assessment (100%=total damage, 0%=no damage), read-out: Pre-emergence herbicidal activity (percentage phytotoxicity) AVEFA PRE.
The mark [9] stands for this setting: post-emergence, 360 h, 250 g/ha, post-emergence, 15 DAA, visual assessment (100%=total damage, 0%=no damage), read-out: Post-emergence herbicidal activity (percentage phytotoxicity) ECHCG POST.
Setting [10] is: pre-emergence, 480 h, 250 g/ha, pre-emergence, 20 DAA, visual assessment (100%=total damage, 0%=no damage), read-out: Pre-emergence herbicidal activity (percentage phytotoxicity) ECHCG PRE.
[11] abbreviates: post-emergence, 360 h, POST-emergence, rate 250 g/ha, visual score 15 DAA (100%=total damage, 0%=no damage), read-out: Post-emergence herbicidal activity (percentage phytotoxicity) LOLPE POST.
Setting [12] is: pre-emergence, 480 h, PRE-emergence, rate 250 g/ha, visual score 20 DAA (100%=total damage, 0%=no damage), read-out: Pre-emergence herbicidal activity (percentage phytotoxicity) LOLPE PRE.
[13] abbreviates: post-emergence, 360 h, POST-emergence, rate 250 g/ha, visual score 15 DAA (100%=total damage, 0%=no damage), read-out: Post-emergence herbicidal activity (percentage phytotoxicity) ALOMY POST.
The mark [14] stands for this setting: pre-emergence, 480 h, PRE-emergence, rate 250 g/ha, visual score 20 DAA (100%=total damage, 0%=no damage), read-out: Pre-emergence herbicidal activity (percentage phytotoxicity) ALOMY PRE.
[15] abbreviates: post-emergence, 360 h, POST-emergence, rate 250 g/ha, visual score 15 DAA (100%=total damage, 0%=no damage), read-out: Post-emergence herbicidal activity (percentage phytotoxicity) AVEFA POST.
Setting [16] is: pre-emergence, 480 h, PRE-emergence, rate 250 g/ha, visual score 20 DAA (100%=total damage, 0%=no damage), read-out: Pre-emergence herbicidal activity (percentage phytotoxicity) AVEFA PRE.
Setting [17] is: post-emergence, 360 h, POST-emergence, rate 250 g/ha, visual score 15 DAA (100%=total damage, 0%=no damage), read-out: Post-emergence herbicidal activity (percentage phytotoxicity) ECHCG POST.
Setting [18] is: pre-emergence, 480 h, PRE-emergence, rate 250 g/ha, visual score 20 DAA (100%=total damage, 0%=no damage), read-out: Pre-emergence herbicidal activity (percentage phytotoxicity) ECHCG PRE.

As to `Cc1cc(C)c(C2C(=O)CC(CC(=O)NC3(C)CCCC3)C2=O)c(C)c1` (centres unmarked) [Compound B41], the pest or weed control at 250 g/ha in the experiment with Lolium perenne (LOLPE) (setting [3]) came out at 60%; with Lolium perenne (LOLPE) (setting [4]), 70%; in experiment [1] (setting [5]) it was 80%; in experiment [1] (setting [6]), 70%; with Avena fatua (AVEFA) (setting [7]) it was 70%; in the experiment on Avena fatua (AVEFA) (setting [8]), 30%. The pest or weed control at 250 g/ha in experiment [2] (setting [9]) and in experiment [2] (setting [10]) was 60% throughout.

Consider `Cc1cc(C)c(C2C(=O)CC(CC(=O)Nc3ccc(C#N)cc3)C2=O)c(C)c1` (centres unmarked) [Compound B1], for which the pest or weed control at 250 g/ha in the experiment on Lolium perenne (LOLPE) (setting [3]) is 20%; with Lolium perenne (LOLPE) (setting [4]) it was 20%; in experiment [1] (setting [5]), 0%; in experiment [1] (setting [6]), 20%; in the experiment on Avena fatua (AVEFA) (setting [7]), 0%; in the experiment with Avena fatua (AVEFA) (setting [8]), 0%. The pest or weed control at 250 g/ha in experiment [2] (setting [9]) is 60%; in experiment [2] (setting [10]), 70%.

Consider `Cc1cc(-c2ncc(Cl)cn2)cc(C)c1C1C(=O)C[C@@H](CC(=O)NC(C)(C)C)C1=O` (some centres unmarked) [Compound B49], for which the pest or weed control at 250 g/ha in the experiment on Lolium perenne (LOLPE) (setting [3]) is 100%; in the experiment on Lolium perenne (LOLPE) (setting [4]), 100%; in experiment [1] (setting [5]) it was 100%; in experiment [1] (setting [6]), 100%; with Avena fatua (AVEFA) (setting [7]) it was 100%; with Avena fatua (AVEFA) (setting [8]) it was 90%. For the same compound, the pest or weed control at 250 g/ha in experiment [2] (setting [9]) and in experiment [2] (setting [10]) was 100% each time.

With `Cc1cc(-c2ncc(F)cn2)cc(C)c1C1C(=O)CC(CC(=O)NCc2cccc(F)c2)C1=O` (centres unmarked) [Compound B264], the pest or weed control at 250 g/ha in the experiment on Lolium perenne (LOLPE) (setting [11]) came to 100%; in the experiment with Lolium perenne (LOLPE) (setting [12]), 90%; in experiment [1] (setting [13]) it was 100%; in experiment [1] (setting [14]), 100%; in the experiment with Avena fatua (AVEFA) (setting [15]), 100%; in the experiment with Avena fatua (AVEFA) (setting [16]), 80%. The pest or weed control at 250 g/ha in experiment [2] (setting [17]) and in experiment [2] (setting [18]) was 100% each time.

Take `C=C(Br)CNC(=O)CC1CC(=O)C(c2c(C)cc(C)cc2C)C1=O` (centres unmarked) [Compound B102]: the pest or weed control at 250 g/ha with Lolium perenne (LOLPE) (setting [3]) turned out to be 90%; with Lolium perenne (LOLPE) (setting [4]), 100%; in experiment [1] (setting [5]), 60%; in experiment [1] (setting [6]), 60%; in the experiment on Avena fatua (AVEFA) (setting [7]) it was 60%; in the experiment on Avena fatua (AVEFA) (setting [8]), 0%. Moreover, the results for the pest or weed control at 250 g/ha in experiment [2] (setting [9]) and in experiment [2] (setting [10]) were 60% and 80%, respectively.

On to `C#CCN(C)C(=O)CC1CC(=O)C(c2c(C)cc(C)cc2C)C1=O` (centres unmarked) [Compound B38], for which the pest or weed control at 250 g/ha in the experiment on Lolium perenne (LOLPE) (setting [3]) worked out at 90%; with Lolium perenne (LOLPE) (setting [4]), 100%; in experiment [1] (setting [5]) it was 70%; in experiment [1] (setting [6]) it was 70%; with Avena fatua (AVEFA) (setting [7]) it was 90%; with Avena fatua (AVEFA) (setting [8]) it was 60%. Moreover, the figures for the pest or weed control at 250 g/ha in experiment [2] (setting [9]) and in experiment [2] (setting [10]) were 90% and 100%, respectively.

With `COc1ccc(CNC(=O)CC2CC(=O)C(c3c(C)cc(-c4ncc(F)cn4)cc3C)C2=O)cc1` (centres unmarked) [Compound B271], the pest or weed control at 250 g/ha with Lolium perenne (LOLPE) (setting [11]) is 90%; with Lolium perenne (LOLPE) (setting [12]), 80%; in experiment [1] (setting [13]) it was 100%; in experiment [1] (setting [14]), 80%; with Avena fatua (AVEFA) (setting [15]), 100%; in the experiment with Avena fatua (AVEFA) (setting [16]), 80%. For the same compound, the pest or weed control at 250 g/ha in experiment [2] (setting [17]) and in experiment [2] (setting [18]) was 100% in each case.

For the compound `COCC#CC(C)(C)NC(=O)CC1CC(=O)C(c2c(C)cc(-c3ncc(Cl)cc3F)cc2C)C1=O` (centres unmarked) [Compound A112], the pest or weed control at 250 g/ha is 100% in the experiment with Lolium perenne (LOLPE) (post-emergence, 360 h, Rate 250 g/ha, post-emergence, assessed visually 15 DAA, 100%=total damage, 0%=no damage, read-out: Post-emergence herbicidal activity (percentage phytotoxicity) LOLPE POST); 100% in the experiment with Lolium perenne (LOLPE) (pre-emergence, 480 h, Rate 250 g/ha, pre-emergence, assessed visually 20 DAA, 100%=total damage, 0%=no damage, read-out: Pre-emergence herbicidal activity (percentage phytotoxicity) LOLPE PRE); 90% in experiment [1] (post-emergence, 360 h, Rate 250 g/ha, post-emergence, assessed visually 15 DAA, 100%=total damage, 0%=no damage, read-out: Post-emergence herbicidal activity (percentage phytotoxicity) ALOMY POST); 80% in experiment [1] (pre-emergence, 480 h, Rate 250 g/ha, pre-emergence, assessed visually 20 DAA, 100%=total damage, 0%=no damage, read-out: Pre-emergence herbicidal activity (percentage phytotoxicity) ALOMY PRE); 100% in the experiment on Avena fatua (AVEFA) (post-emergence, 360 h, Rate 250 g/ha, post-emergence, assessed visually 15 DAA, 100%=total damage, 0%=no damage, read-out: Post-emergence herbicidal activity (percentage phytotoxicity) AVEFA POST); 90% in the experiment on Avena fatua (AVEFA) (pre-emergence, 480 h, Rate 250 g/ha, pre-emergence, assessed visually 20 DAA, 100%=total damage, 0%=no damage, read-out: Pre-emergence herbicidal activity (percentage phytotoxicity) AVEFA PRE). Moreover, the pest or weed control at 250 g/ha in experiment [2] (post-emergence, 360 h, Rate 250 g/ha, post-emergence, assessed visually 15 DAA, 100%=total damage, 0%=no damage, read-out: Post-emergence herbicidal activity (percentage phytotoxicity) ECHCG POST) is 100%; in experiment [2] (pre-emergence, 480 h, Rate 250 g/ha, pre-emergence, assessed visually 20 DAA, 100%=total damage, 0%=no damage, read-out: Pre-emergence herbicidal activity (percentage phytotoxicity) ECHCG PRE), 100%.

Regarding `CCc1cc(C)cc(C)c1C1C(=O)CC(CC(=O)NC(C)C)C1=O` (centres unmarked) [Compound B255], the pest or weed control at 250 g/ha in the experiment with Lolium perenne (LOLPE) (setting [11]) stood at 100%; in the experiment with Lolium perenne (LOLPE) (setting [12]), 100%; in experiment [1] (setting [13]) it was 100%; in experiment [1] (setting [14]) it was 100%; in the experiment with Avena fatua (AVEFA) (setting [15]), 100%; in the experiment with Avena fatua (AVEFA) (setting [16]), 80%. In addition, the pest or weed control at 250 g/ha in experiment [2] (setting [17]) and in experiment [2] (setting [18]) was 100% in each case.

Turning to `COCCCNC(=O)CC1CC(=O)C(c2c(C)cc(C)cc2C)C1=O` (centres unmarked) [Compound A176], the pest or weed control at 250 g/ha in the experiment on Lolium perenne (LOLPE) (post-emergence, 360 h, post-emergence, 250 g/ha, 15 DAA, visual score (100%=total damage; 0%=no damage), read-out: LOLPE POST herbicidal activity (percentage phytotoxicity)) is 100%; in the experiment on Lolium perenne (LOLPE) (pre-emergence, 480 h, pre-emergence, 250 g/ha, 20 DAA, visual score (100%=total damage; 0%=no damage), read-out: LOLPE PRE herbicidal activity (percentage phytotoxicity)), 100%; in experiment [1] (post-emergence, 360 h, post-emergence, 250 g/ha, 15 DAA, visual score (100%=total damage; 0%=no damage), read-out: ALOMY POST herbicidal activity (percentage phytotoxicity)), 90%; in experiment [1] (pre-emergence, 480 h, pre-emergence, 250 g/ha, 20 DAA, visual score (100%=total damage; 0%=no damage), read-out: ALOMY PRE herbicidal activity (percentage phytotoxicity)), 90%; in the experiment on Avena fatua (AVEFA) (post-emergence, 360 h, post-emergence, 250 g/ha, 15 DAA, visual score (100%=total damage; 0%=no damage), read-out: AVEFA POST herbicidal activity (percentage phytotoxicity)) it was 90%; in the experiment on Avena fatua (AVEFA) (pre-emergence, 480 h, pre-emergence, 250 g/ha, 20 DAA, visual score (100%=total damage; 0%=no damage), read-out: AVEFA PRE herbicidal activity (percentage phytotoxicity)) it was 90%. Also, the pest or weed control at 250 g/ha is 100% in experiment [2] (post-emergence, 360 h, post-emergence, 250 g/ha, 15 DAA, visual score (100%=total damage; 0%=no damage), read-out: ECHCG POST herbicidal activity (percentage phytotoxicity)) and 100% in experiment [2] (pre-emergence, 480 h, pre-emergence, 250 g/ha, 20 DAA, visual score (100%=total damage; 0%=no damage), read-out: ECHCG PRE herbicidal activity (percentage phytotoxicity)).
